≈ marks a conversion by molar mass, not a printed value. Like-named read-outs stand apart in the source and are kept apart here.
Key:
[1] = Hepatocyte stability assay, human; assay type: in vitro ADME; conditions: human hepatocytes, 1 μM
Procedure: BioreclamationIVT (Baltimore, MD) provided the cryopreserved hepatocytes, hepatocyte thawing (HT) medium, and Krebs-Henseleit buffer (KHB) medium. The stock solution concentration was 1 M in DMSO and was then diluted further in acetonitrile/water (1:1 v/v). All other chemicals were purchased from Sigma-Aldrich (St. Louis, MO) or Thermo Fisher Scientific (Waltham, MA).
The quench solution used to stop reactions in the hepatocyte incubations was comprised of 100% (v/v) acetonitrile. Internal Standard/Quench (IS/Q) solution used to stop reactions with the positive control also contained 200 nM Labetalol.
Metabolic Stability in Cryopreserved Hepatocytes: Test compounds, or the positive control metabolic substrate, was incubated in suspensions of cryopreserved hepatocytes at a final concentration of 1 μM. Vials containing cryopreserved hepatocytes were removed from liquid nitrogen and immediately immersed in a 37° C. water bath. The vials were swirled gently until the contents had thawed. They were then immediately emptied into 48 mL of pre-warmed thawing medium in a 50 mL conical tube. Cells remaining in the vial were re-suspended with 1.0 mL of pre-warmed thawing medium and added to the conical tube. The tube was capped and then gently inverted several times to re-suspend the hepatocytes. The cell suspension was centrifuged at 500×g for 10 minutes at room temperature and the supernatant discarded. The cell pellet was loosened by gently swirling the centrifuge tube. Non-supplemented KHB medium was added to obtain the appropriate target cell density. The viabilities of all cell preparations were ≥85%, assessed by Trypan blue dye exclusion.
For incubations, aliquots of hepatocyte suspension (250 μL containing a cell concentration of 2×10^6 cells/mL) were added to 250 μL of 2 μM substrate (test compound or positive control) in supplemented KHB in duplicate wells in a 24-well plate. Final concentration in the incubations were 1×10^6 cells/mL and 1 μM substrate. A cell-free control incubation (KHB only) was also included. The incubations were carried out with gentle shaking in a 37° C. incubator under a humid atmosphere of 95% air/5% CO2 (v/v). Aliquots (100 μL) were removed after 0, 1, 3, and 6 hours and added to 200 μL quenching solution. The samples were then placed on a shaker for 10 min followed by centrifugation at 3000×g for 20 min. The supernatant was transferred to a new plate and diluted with 100 μL of water to reduce the organic content and then placed on a shaker for 10 mins. Samples were injected and analyzed with methods described below.
Liquid Chromatography: Quantification of positive control and test compound was performed by analyte/internal standard peak area ratios (PAR) measured on a Thermo Scientific™ Q Exactive™ Hybrid Quadrupole-Orbitrap Mass Spectrometer MS/MS with an electrospray interface operating in positive ion mode. The mass spectrometer was coupled to a Dionex Ultimate® 3000 HPLC system. Samples (10 μL aliquots) were injected with a Leap Technologies HTC PAL autosampler. For positive control, the column used was a Thermo Scientific™ Hypersil GOLD™ HPLC column ([…], 50×2.1 mm). Mobile phase A consisted of 95% (v/v) water, 5% (v/v) acetonitrile, and contained 0.1% (v/v) formic acid (FA). Mobile phase B consisted of 95% (v/v) acetonitrile, 5% (v/v) water, and contained 0.1% (v/v) FA. Elution was achieved, at a flow rate of 0.5 mL/min, by a series of linear gradients: initial condition was 5% B at 0 min, isocratic for 20 seconds; then linear gradient to 95% B over 90 seconds, followed by isocratic for 60 seconds at 95% B, and re-equilibrated to initial conditions over 70 seconds.
Metabolic stabilities of positive control and test compound were determined by measuring the rates of disappearance of the parent with time by determining the % of parent remaining at time t (Ct) {Obach 1997}.
Data (% of parent remaining) were plotted on a semi-log scale and fitted using an exponential fit: […]

[2] = MDR1/BCRP assay: permeability in cPgp-KO-MDCK-WT cells; assay type: in vitro ADME; conditions: dog, pH 7.4
Procedure: The cells were maintained in an incubator at 37° C., 90% humidity, and 5% CO2 until reaching confluence over 5 days in 96-well transwell plates. Experiments were conducted using an HBSS donor buffer (Invitrogen) containing 10 mM HEPES and 15 mM glucose, adjusted to pH 7.4. The receiver well contained HBSS buffer supplemented with 1% BSA, 10 mM HEPES, and 15 mM glucose, and the pH was adjusted to 7.4. TEER values were measured to assess membrane integrity after an initial equilibration with BSA-free transport buffer for 15 minutes. The experiment was started by adding dosing solutions containing test compounds at 1 μM. Cells were dosed on the apical (A) side or basolateral (B) side at 100 μl and 200 μl, respectively, to determine forward (A to B) and reverse (B to A) permeability. At the 2-hour time point, 50 μl samples were collected from the receiver compartment. Each compound was tested in 2 separate replicate wells for each condition. All samples were immediately collected into plates, and 50 μL of acetonitrile was added. Subsequently, 350 μl of 30:70 methanol: acetonitrile containing internal standard was added to precipitate proteins and stabilize the test compounds. To test for non-specific binding and compound instability, the total amount of the drug was quantified at the end of the experiment and compared to the material present in the original dosing solution as a percentage of the recovery. All samples were analyzed by LC-MS/MS using electrospray ionization.
The apparent permeability, Papp, and % recovery were calculated as follows: […]

[3] = PBS solubility (kinetic solubility from DMSO stocks); assay type: physicochemical; conditions: 22 °C, aqueous buffer, kinetic from dmso stock; 1x PBS pH 7.4, 1.0% DMSO, 24-hour incubation at ambient temperature
Procedure: Buffer Preparation: 1×PBS, 7.4: Phosphate Buffered Saline solution 10×, PBS (Fisher Bioreagent, part number BP399-500) 50 mL was added to approximately 450 mL HPLC grade H2O. The volume of the solution was then adjusted to 500 mL for a total dilution factor of 1:10 and a final PBS concentration of 1×. The pH of the final solution was measured and found to be 7.4.
The final DMSO Concentration is 1.0% and maximum theoretical compound concentration is 100 μM (assuming stock concentration of 10 mM). The filter plate was sealed. Following 24-hour incubation at ambient temperature (20.8-24.0° C.), the samples were vacuum filtered, and the filtrates were collected in a 96 well polypropylene plate for analysis. The collection plate was sealed for analysis. Filtrates were injected into the nitrogen detector for quantification on Analiza's Automated Discovery Workstation. The results are reported here in both μM and μg/mL.
Calculation of Results: The equimolar nitrogen response of the detector is calibrated using standards which span the dynamic range of the instrument from 0.08 to 4500 μg/ml nitrogen. The filtrates were quantified with respect to this calibration curve. The calculated solubility values are corrected for background nitrogen present in the DMSO, and the media used to prepare the samples. All reported values for compounds containing adjacent nitrogen atoms in a ring structure should be increased by ˜25%. […] The solubility results presented assume that the samples were free of nitrogen containing impurities and are stable under the assay conditions.

[4] = Cell viability assay (CellTiter-Glo, 7 days), HCT116 WT; assay type: cell-based; conditions: human, HCT116 WT cells, 7 days of treatment, CTG
Procedure: Control compounds were analyzed in parallel each time for quality control. In Brief, on Day -1, a serial dilution of stock compounds in DMSO was performed using BioMek liquid handlers and dispensed using Echo acoustic dispenser into 384 well plates. Both tool compounds and sample compounds were spotted in the same plate for a dose response of PRMT5 inhibitors. Compound plates were stored as frozen until the cells were ready for seeding. […] After equilibrating the plate in room temperature, the cells were incubated for 7 days inside the sealed incubator set at 37° C. with 90% humidity and 5% CO2. On Day 7, the viability of cells was measured using a CTG assay kit (CellTitre-Glo;Promega cat no. G7573). Shortly, 40 μl per well of luminescent cell viability assay reagent were dispensed using EL460 liquid dispenser 5 μl cassette. CTG luminescence signal was measured using an EnVision plate reader (PerkinElmer) in accordance with manufacturer's instruction. […] Selectivity with * is artificially high due to limited solubility of the compound hampering accurate measurement of WT CC50.

[5] = system: HCT116 MTAP-deleted cell lines; test: Cell viability assay (CellTiter-Glo, 7 days), HCT116 MTAP-deleted; assay type: cell-based; conditions: for Selectivity: HCT116 WT CC50 versus HCT116 MTAP^del CC50; for plasma-adjusted CC50 (paCC50): paCC50 = CC50-HCT116-MTAP^del * (% free CCM/% free human plasma); for CC50: Homo sapiens, HCT116 MTAP-deleted
Procedure, shortened: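 Read-out was CellTiter-Glo luminescence after a 7-day incubation (37 °C, 5% CO2) of HCT116 cells, MTAP-deleted or WT, on dose-response compound plates. CC50 values come from each line; where marked *, selectivity is overstated because poor solubility impaired the WT CC50 measurement.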

[6] = HCT-116, 168 h, 7 days of treatment, CTG, read-out: CC50-HCT116-MTAP^del
[7] = HCT-116, cell viability, class symbols, read-out: CC50

Nc1nc2cc(F)c(C(=O)N3CCC[C@@H]4Oc5cc(C(F)(F)F)ncc5[C@@H]43)cc2n2cncc12 [Ff-117, (4-amino-7-fluoroimidazo[1,5-a]quinoxalin-8-yl)((4aS,9bS)-7-(trifluoromethyl)-3,4,4a,9b-tetrahydrofuro[3,2-b:4,5-c′]dipyridin-1(2H)-yl)methanone]
Human Predicted Hepatocyte CL [1]: 0.83 mL/min/kg | Papp A→B at 2 h, 1 µM [2]: 11.3 ×10⁻⁶ cm/s | solubility at 24 h [3]: 54.7 µM (≈ 25.8 µg/mL) | CC50 at 7 days [4]: 1250 nM | Selectivity [5]: 69 | plasma-adjusted CC50 (paCC50) ([5]; HCT-116): 269 nM | CC50 [5, 6]: 18 nM | CC50 [5, 7]: < 100 nM

[2H]C1([2H])CC[C@@H]2Oc3cc(C(F)(F)F)ccc3[C@@H]2N1C(=O)c1cc2c(cc1F)nc(N)c1cncn12 [Ff-121, (4-amino-7-fluoroimidazo[1,5-a]quinoxalin-8-yl)((4aS,9bS)-7-(trifluoromethyl)-3,4,4a,9b-tetrahydrobenzofuro[3,2-b]pyridin-1(2H)-yl-2,2-d2)methanone]
Human Predicted Hepatocyte CL [1]: 8 mL/min/kg | Papp A→B at 2 h, 1 µM [2]: 15.1 ×10⁻⁶ cm/s | solubility at 24 h [3]: 4 µM (≈ 1.89 µg/mL) | CC50 at 7 days [4]: 459 nM | Selectivity [5]: 153 | plasma-adjusted CC50 (paCC50) ([5]; HCT-116): 106 nM | CC50 [5, 6]: 3 nM | CC50 [5, 7]: < 100 nM

Cc1ncc2c(N)nc3cnc(C(=O)N4CCC[C@@H]5Oc6cc(C(F)(F)F)ccc6[C@@H]54)cc3n12 [Ff-344, (4-amino-1-methylimidazo[1,5-a]pyrido[3,4-e]pyrazin-8-yl)((4aS,9bS)-7-(trifluoromethyl)-3,4,4a,9b-tetrahydrobenzofuro[3,2-b]pyridin-1(2H)-yl)methanone]
Human Predicted Hepatocyte CL [1]: 1.2 mL/min/kg | Papp A→B at 2 h, 1 µM [2]: 14.7 ×10⁻⁶ cm/s | solubility at 24 h [3]: < 1 µM | CC50 at 7 days [4]: 2300 nM | Selectivity [5]: 85 | plasma-adjusted CC50 (paCC50) ([5]; HCT-116): 476 nM | CC50 [5, 6]: 27 nM | CC50 [5, 7]: < 100 nM

Nc1nc2cc(F)c(C(=O)N3CC[C@H]4C[C@@H]3c3ccc(C(F)(F)F)nc3O4)cc2n2cncc12 [Ff-366, (4-amino-7-fluoroimidazo[1,5-a]quinoxalin-8-yl)((2S,6R)-9-(trifluoromethyl)-3,4-dihydro-2H-2,6-methanopyrido[2,3-b][1,5]oxazocin-5(6H)-yl)methanone]
Human Predicted Hepatocyte CL [1]: 0.83 mL/min/kg | Papp A→B at 2 h, 1 µM [2]: 9 ×10⁻⁶ cm/s | solubility at 24 h [3]: 25.2 µM (≈ 11.9 µg/mL) | CC50 at 7 days [4]: 2170 nM | Selectivity [5]: 75 | plasma-adjusted CC50 (paCC50) ([5]; HCT-116): 206 nM | CC50 [5, 6]: 29 nM | CC50 [5, 7]: < 100 nM

Nc1nc2ccc(C(=O)N3CCC[C@@H]4Oc5cc(C(F)(F)F)cc(F)c5[C@@H]43)cc2n2cncc12 [Ff-693, (4-aminoimidazo[1,5-a]quinoxalin-8-yl)((4aS,9bS)-9-fluoro-7-(trifluoromethyl)-3,4,4a,9b-tetrahydrobenzofuro[3,2-b]pyridin-1(2H)-yl)methanone]
Human Predicted Hepatocyte CL [1]: 5.17 mL/min/kg | Papp A→B at 2 h, 1 µM [2]: 12.6 ×10⁻⁶ cm/s | CC50 at 7 days [4]: 1880 nM | Selectivity [5]: 125 | plasma-adjusted CC50 (paCC50) ([5]; HCT-116): 247 nM | CC50 [5, 6]: 15 nM

Nc1nc2ccc(C(=O)N3CCC[C@@H]4Oc5cc(OC(F)(F)F)cc(F)c5[C@@H]43)cc2n2cncc12 [Ff-697, (4-aminoimidazo[1,5-a]quinoxalin-8-yl)((4aS,9bS)-9-fluoro-7-(trifluoromethoxy)-3,4,4a,9b-tetrahydrobenzofuro[3,2-b]pyridin-1(2H)-yl)methanone]
Human Predicted Hepatocyte CL [1]: 6.7 mL/min/kg | solubility at 24 h [3]: 2.5 µM (≈ 1.22 µg/mL) | CC50 at 7 days [4]: 4990 nM | Selectivity [5]: 199 | plasma-adjusted CC50 (paCC50) ([5]; HCT-116): 289 nM | CC50 [5, 6]: 25 nM
